This is an account of results in article PMC11275057, “Biochemical and Functional Profiling of Thioredoxin-Dependent Cytosolic GPX-like Proteins in Euglena gracilis” (Biomolecules, 2024).

One experiment concerns T1, rEgGPXL-2.
T1 construct: gene EgGPXL-2; full-length ORF, 173 residues, no signal peptide, pCold-II 6xHis tag, E. coli BL21, TALON purified, about 18-20 kDa; animal-type GPX, Cys-45 in place of Sec; cDNA 737 bp
The experiment in a line: NADPH oxidation at […] nm, thioredoxin/thioredoxin reductase coupled. Format: biochemical, Euglena gracilis. Conditions: 6 µM yeast Trx-2 as electron donor, 0.3 µM yeast Trx reductase, 0.2 mM NADPH, 20 mM HEPES-NaOH pH 7.5; t-BOOH up to 0.04 mM.

Another experiment deals with T2, rEgGPXL-4.
T2 construct: gene EgGPXL-4; full-length ORF, 159 residues, no signal peptide, pCold-II 6xHis tag, E. coli BL21, TALON purified, about 18-20 kDa; plant-type GPX; cDNA 787 bp; printed Cys-64, Gln-66, Phe-67, Glu-71, Gly-100, Asn-126, Phe-127, Lys-129, Gly-136
The description is as above. The class given is biochemical, Euglena gracilis. The conditions noted are these: 6 µM yeast Trx-2 as electron donor, 0.3 µM yeast Trx reductase, 0.2 mM NADPH, 20 mM HEPES-NaOH pH 7.5; t-BOOH up to 0.04 mM.

Molecules are shown by their SMILES.

In general, Km refers to the substrate concentration at which the rate is half of its maximum. In the case of `CC(C)(C)OO` [t-BOOH], the Km in the experiment with rEgGPXL-2 worked out at 28.5 ± 3.1 µM; in the experiment with rEgGPXL-4 it was 38.5 ± 1.6 µM.
